Experimental data reported in patent EP0167385B1, “Antiviral compounds, treatment and formulations” (THE WELLCOME FOUNDATION LIMITED, priority 1984, dated 1986).
Read-outs that look alike come from different tables or passages of the source.

Columns and labels:
Epstein-Barr Virus (EBV) = assay: EBV-specific cRNA-DNA hybridization, EBV genome equivalents in P3HR-1 cells; assay type: cell-based
Experimental: 1-[2-Hydroxy-1-(hydroxymethyl)ethoxymethyl]cytosine was assayed for activity against Epstein-Barr Virus (EBV) using an adaptaion of the procedure described in Nature New Biology, 233, 103-106 (1971). This technique, employing an EBV-specific cRNA-DNA hybridization on filter membranes, detects the amount of EBV genome equivalents produced in the virus-producing cell lines. In this assay the EBV-producing cell line […]-1 (ATCC HTB 62) was exposed to various concentrations of 1-[2-hydroxy-1-(hydroxymethyl)-ethoxymethyl]cytosine for 14 days and EBV genome equivalents per cell were then determined to give an ED50 of approximately 0.05 μM.

VZV = assay: antiviral test against VZV; settings: antiviral tests, general statement
human CMV = assay: plaque reduction assay in human foreskin fibroblast monolayers; assay type: cell-based; settings: for EC50: Human betaherpesvirus 5, Fibroblast, 192 h, Human Foreskin Fibroblasts, 8 days, read-out: ED₅₀
Experimental: Confluent monolayers of human diploid fibroblast cells (i.e., human foreskin fibroblast cells) were infected with 200-300 µL of a suspension containing 50-100 human CMV infectious virions per culture well and allowed to incubate for 90 minutes at 37 degrees C in a CO₂ incubator. Unadsorbed virus was then removed by aspiration and appropriate concentrations of 1-[2-hydroxy-1-(hydroxymethyl)ethoxymethyl] cytosine were added in Eagle's Minimal Essential Media containing 2% fetal calf serum in an agarose overlay (0.6%). The assay plates were incubated at 37 degrees C in a CO₂ incubator for 8 days to allow plaque development. The monolayers were then fixed with 10% formalin in phosphate buffered saline and stained wth 0.8% crystal violet. The plaques were counted at 3x magnification using a Bausch and Lomb dissecting microscope, and the data were analysed by SAS Probit (SAS Institute, Inc., Cary, N.C., U.S.A.) to give the following results: […]

HSV-1 = settings: concentrations up to 100 ug; Ogilvy et al, Nucleosides and Nucleotides (1983); cited from earlier work
[1] = urine levels after oral administration, rats; assay type: in vivo; settings: compared with oral administration of the compound of formula (I) itself
[2] = urine levels after oral administration, mice; assay type: in vivo; settings: compared with oral administration of the compound of formula (I) itself
[3] = toxicity in mice after administration by gavage; assay type: in vivo; settings: 44.5 mg per kg by gavage, suspension in 5% Tween 80, 28 male CD-1 mice
Experimental: The compound of formula (II) was administered to 28 male CD-1 mice by gavage. The dose was 44.5 mg per kg of body weight and was in suspension in 5% Tween 80 at a concentration of 5 mg/ml.

[4] = antiviral tests, general statement

| Compound | activity against EBV (Epstein-Barr Virus (EBV); [4]) | EC50 (Epstein-Barr Virus (EBV); human gammaherpesvirus 4, 336 h, P3HR-1 (ATCC HTB 62) cells exposed for 14 days, read-out: ED₅₀ (EBV genome equivalents per cell)) [nM] | activity against VZV (VZV) | EC50 (human CMV; Virus Strain ATCC VR-538 (strain AD169)) [nM] | EC50 (human CMV; Virus Strain Kerr) [nM] | activity against CMV (human CMV; [4]) | activity against HSV-1 (HSV-1) | body fluid levels of the compound of formula (I), as demonstrated by urine levels [1] | body fluid levels of the compound of formula (I), as demonstrated by urine levels [2] | signs of toxicity [3] |
| --- | --- | --- | --- | --- | --- | --- | --- | --- | --- | --- |
| Nc1ccn(COC(CO)CO)c(=O)n1 [1-[2-Hydroxy-1-(hydroxymethyl)ethoxymethyl]cytosine] | surprisingly good activity | ~50 | surprisingly good activity | 3700 ± 700 | 1900 ± 200 | surprisingly good activity | no activity |  |  |  |
| CC(C)(C)C(=O)OCC(COC(=O)C(C)(C)C)OCn1ccc(N)nc1=O [compound of formula (II), 2-[(4-Amino-1,2-dihydro-2-oxo-1-pyrimidinyl)methoxy]-1,3-propanediyl Dipivalate] |  |  |  |  |  |  |  | substantially higher | substantially higher | No signs of toxicity were observed |
